Laboratory results as given in US11691981B2, “Heterocyclic compounds, preparation methods therefor, and methods of uses thereof” (INVENTISBIO CO., LTD., priority 2019, dated 2023).

How the values were obtained:
TGFβR1 = TGFβR1 (Homo sapiens (Human), UniProt P36897); assay: TGFβR1 kinase inhibition assay (ADP-Glo Kinase Assay); assay type: biochemical; conditions: 40 nM TGFβR1 in 2x enzyme mix, 5.4 μM ATP in 2x substrate mix, 120 min RT
Description: TGFβR1 kinase assay was performed according to the instruction manual of the ADP-Glo™ Kinase Assay kit provided by Promega. Prepare 1× Kinase buffer (50 mM Tris pH7.5, 0.1% BSA, 10 mM MgCl2, 1 mM DTT). Before activation reaction was started, Compounds were dissolved in DMSO and make 100× solution with 3-fold serial dilution for a total of 10 concentrations. Transfer 50 nL compounds to 384-well plate according to plate map using the automated liquid handler. […] Add 5 μL ADP-Glo Reagent to terminate the kinase reaction and deplete the remaining ATP, incubate at RT for 60 minutes. Add 10 μL Kinase Detection Reagent to convert ADP to ATP and allow the newly synthesized ATP to be measured using a luciferin reaction, incubate at RT for 30 minutes. Collect luminescence data with Envision.

MDCK-MDR1 cells = assay: P-glycoprotein substrate potential / permeability in MDR1-transfected MDCK cells; assay type: in vitro ADME
Description: (§1) MDCK-MDR1 cells were seeded into 96-well HTS Transwell plate at the density of 5.45×10^5/cm^2. Cells were cultivated for 4-7 days before the transport assay. Transepithelial electrical resistance (TEER) of MDCK-MDR1 monolayer was measured before the experiment with the Millicell Epithelial Volt-Ohm measuring system.
(§2) Transport assay: Cell monolayers were pre-incubated in transport medium (TM, HBSS with 25 mM HEPES, pH 7.4) for 30 min at 37° C. After preincubation, the study was initiated by adding the test compound to the donor side and TM to the receiver side. Compound transport was assessed at 1 μM in two directions (apical, AP to basolateral, BL and BL to AP) and the study was carried out in the presence and absence of P-gp inhibitor verapamil in both AP and BL compartments. After two hours incubation, aliquots of 50 μL from donor or receiver side were removed and mixed with 4 volumes of acetonitrile containing internal standards (200 nM alprazolam, 200 nM labetalol, 2 μM ketoprofen). Samples were analyzed by UPLC-MS/MS. All incubations were performed in duplicate. After the transport experiment, Lucifer Yellow leakage was measured in a fluorescence plate reader at 485 nm excitation and 530 nm emission.
(§3) Data Analysis: All calculations were carried out using Microsoft Excel. Peak areas are determined from extracted ion chromatograms.
(§4) The apparent permeability coefficient (Papp), in units of centimeter per second, was calculated for MDCK-MDR1 drug transport assays using the following equation: […]
(§5) Where VA is the volume (in mL) in the acceptor well, Area is the surface area of the membrane (0.143 cm2 for Transwell-96 Well Permeable Supports), and time is the total transport time in seconds.
(§6) The efflux ratio was determined using the following equation: […]
(§7) Where Papp (B-A) indicates the apparent permeability coefficient in basolateral to apical direction, and Papp (A-B) indicates the apparent permeability coefficient in apical to basolateral direction.

pooled human hepatocytes = assay: Human hepatocyte clearance study; assay type: in vitro ADME; conditions: human hepatocytes; for Human Hepatocyte Remaining Percentage @ 120 min: 0.5×10^6 viable cells/mL
Description: (§8) The in vitro human hepatocyte clearance of compounds described here was studied using pooled human hepatocytes purchased from BioreclamationIVT (Westbury, N.Y., Cat #X008001, Lot #TQJ). The assay was conducted according to manufacturer's instruction. Briefly, 10 mM stock solutions of test compounds and positive control (Verapamil) were prepared in 100% DMSO. Thawing media (50 mL) used in the study consists of: 31 mL Williams E medium (GIBCO Cat #12551-032); 15 mL isotonic percoll (GE Healthcare Cat #17-0891-09); 500 uL 100× GlutaMax (GIBCO Cat #35050); 750 uL HEPES (GIBCO Cat #15630-080); 2.5 mL FBS (Corning Cat #35-076-CVR); 50 uL human insulin (GIBCO Cat #12585-014) and 5 uL dexamethasone (NICPBP). Incubation media is made of Williams E medium supplemented with 1× GlutaMax. Both thawing medium and incubation medium (serum-free) were placed in a 37° C. water bath for at least 15 minutes prior to use. Compound stock solutions were diluted to 100 μM by combining 198 μL of 50% acetonitrle/50% water and 2 μL of 10 mM stock solution. Verapamil was use as positive control in the assay. Vials of cryopreserved hepatocytes were removed from storage and thawed in a 37° C. water bath with gentle shaking. Contents of the vial were poured into the 50 mL thawing medium conical tube. Vials were centrifuged at 100 g for 10 minutes at room temperature. Thawing medium was aspirated and hepatocytes were re-suspended with serum-free incubation medium to yield ˜1.5×10^6 cells/mL. Hepatocyte viability and density were counted using a Trypan Blue exclusion, and then cells were diluted with serum-free incubation medium to a working cell density of 0.5×10^6 viable cells/mL. Then, a portion of the hepatocytes at 0.5×10^6 viable cells/mL was boiled for 5 minutes prior to adding to the plate as negative control to eliminate the enzymatic activity so that little or no substrate turnover should be observed. The boiled hepatocytes were used to prepare negative samples. Aliquots of 198 μL hepatocytes were dispensed into each well of a 96-well non-coated plate. The plate was placed in the incubator on an orbital shaker at 500 rpm for approximately 10 minutes. Aliquots of 2 μL of the 100 μM test compound or positive control were added into respective wells of the non-coated 96-well plate to start the reaction. This assay was performed in duplicate. The plate was incubated in the incubator on an orbital shaker at 500 rpm for the designated time points. Twenty-five microliter of contents were transferred and mixed with 6 volumes (150 μL) of cold acetonitrile with IS (200 nM imipramine, 200 nM labetalol and 200 nM diclofenac) to terminate the reaction at time points of 0, 15, 30, 60, 90 and 120 minutes. Samples were centrifuged at 3,220 g for 25 minutes and aliquots of 150 μL of the supernatants were used for LC-MS/MS analysis. For data analysis, all calculations were carried out using Microsoft Excel. Peak areas were determined from extracted ion chromatograms. The in vitro half-life (t1/2) of parent compound was determined by regression analysis of the percent parent disappearance vs. time curve. The in vitro half-life (in vitro ti) was determined from the slope value: in vitro t1/2=0.693/k. […] Scaling factors for in vivo intrinsic clearance prediction using human hepatocytes are listed as: liver weight (g liver/kg body weight): 25.7; hepatocyte concentration (10^6 cells/g liver): 99; scaling factor: 2544.3.

P-glycoprotein (MDR1) = assay: P-glycoprotein substrate potential / permeability in MDR1-transfected MDCK cells; assay type: in vitro ADME; conditions: dog, pH 7.4; for Papp A→B at 2 h, 1 µM / Papp B→A at 2 h, 1 µM: MDCK-MDR1, 1 μM, two hours; for Papp A→B at 2 h, 1 µM: apical to basolateral; for Papp B→A at 2 h, 1 µM: basolateral to apical; for efflux ratio at 2 h, 1 µM: MDCK-MDR1, Papp (B-A)/Papp (A-B)
Description: as §1, §2, §3, §4, §5, §6, §7

[1] = Human hepatocyte clearance study; assay type: in vitro ADME; conditions: pooled cryopreserved human hepatocytes (suspension); for hepatocyte CLint at 1 µM / half-life at 1 µM: human; for hepatocyte CLint at 1 µM: read-out: Human In vitro Clint; for half-life at 1 µM: read-out: Human In vitro T1/2; for CLint scaled at 1 µM: human hepatocytes, scaling factor 2544.3, read-out: Human Scale-up Clint
Description: as §8

TGFβR2 = TGFβR2 (Homo sapiens (Human), UniProt P37173); assay: TGFβR2 kinase inhibition assay (ADP-Glo); assay type: biochemical; conditions: 10 uM ATP, 120 min room temperature
Chain of TGFβR2 (P37173 23-567): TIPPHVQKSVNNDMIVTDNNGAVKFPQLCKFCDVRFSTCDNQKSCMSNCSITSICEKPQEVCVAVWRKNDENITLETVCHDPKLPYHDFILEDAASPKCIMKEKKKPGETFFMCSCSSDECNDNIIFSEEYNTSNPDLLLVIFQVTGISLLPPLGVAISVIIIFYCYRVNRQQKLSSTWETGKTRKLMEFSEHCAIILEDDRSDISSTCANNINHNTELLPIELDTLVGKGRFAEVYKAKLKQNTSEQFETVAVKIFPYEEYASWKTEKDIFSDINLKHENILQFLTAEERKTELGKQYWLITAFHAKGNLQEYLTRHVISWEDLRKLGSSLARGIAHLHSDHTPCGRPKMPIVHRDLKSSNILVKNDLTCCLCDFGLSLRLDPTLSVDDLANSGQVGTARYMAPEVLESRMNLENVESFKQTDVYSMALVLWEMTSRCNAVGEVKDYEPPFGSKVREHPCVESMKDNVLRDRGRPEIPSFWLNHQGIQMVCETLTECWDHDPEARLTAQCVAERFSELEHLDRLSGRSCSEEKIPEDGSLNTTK
Description: The TGFβR2 enzyme reaction was carried out as follows: 50 nL of compound in DMSO (or DMSO controls) were stamped into 384 white, low-volume plates. 2.5 μL of 2× enzyme solution (final enzyme concentration was 3 ng/uL in 40 mMTris, 7.5; 20 mM MgCl2; 0.1 mg/mL BSA; 1 mM DTT) was dispensed into assay plate. The plate was then sealed and spun at 1000 rpm for 30 s and incubated at room temperature for 10 min. Followed by addition of 2.5 μL of 2× substrate solution that contains both ATP (to make a final concentration of 10 uM) and TGFβR2 substrate (final concentration of 0.2 ug/uL). The plate was then sealed and spun at 1000 rpm for 30 s and the reaction was then incubated at room temperature for 120 min. After that 5 μL ADP-Glo™ Reagent was added into the assay wells to stop the reaction and deplete unconsumed ATP for 40 min at room temperature; then, 10 μL of Detection Reagent was added into the assay wells, followed by 40 min incubation to develop luminescence. The luminescence signal was then collected on Envision 2104 plate reader.

Chain of TGFβR1 (P36897 34-503): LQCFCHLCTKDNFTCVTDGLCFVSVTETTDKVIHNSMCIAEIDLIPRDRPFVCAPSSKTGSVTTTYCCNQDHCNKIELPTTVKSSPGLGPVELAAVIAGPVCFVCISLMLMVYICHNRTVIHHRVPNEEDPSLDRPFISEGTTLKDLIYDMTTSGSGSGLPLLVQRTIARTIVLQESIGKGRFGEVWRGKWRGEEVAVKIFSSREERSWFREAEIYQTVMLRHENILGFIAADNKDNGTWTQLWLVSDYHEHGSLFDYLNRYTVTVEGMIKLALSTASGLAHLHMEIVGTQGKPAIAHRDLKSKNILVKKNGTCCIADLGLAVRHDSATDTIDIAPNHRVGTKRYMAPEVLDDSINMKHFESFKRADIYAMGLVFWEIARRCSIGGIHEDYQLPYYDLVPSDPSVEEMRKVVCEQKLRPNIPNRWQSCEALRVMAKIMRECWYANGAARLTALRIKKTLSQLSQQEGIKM

IC50 (TGFβR1)	hepatocyte CLint at 1 µM [1]	half-life at 1 µM [1]	CLint scaled at 1 µM [1]	IC50 (TGFβR2)	Structure (SMILES)	Human Hepatocyte Remaining Percentage @ 120 min (pooled human hepatocytes)	further results
53 nM	–	–	–	–	CC(C)(O)c1cc(Nc2cc(Oc3cc(C(F)(F)F)nn3C3CCOCC3)ccn2)ccn1 [Compound 2]	72%	Papp (A-B) (MDCK-MDR1 cells; MDCK-MDR1, 1 μM, apical to basolateral, two hours): 4.95 10^−6, cm/s; Papp (B-A) (MDCK-MDR1 cells; MDCK-MDR1, 1 μM, basolateral to apical, two hours): 14.87 10^−6, cm/s; Efflux Ratio (MDCK-MDR1 cells; MDCK-MDR1, Papp (B-A)/Papp (A-B)): 3.00; Human In vitro Clint (pooled human hepatocytes): 5.6 μL/min/10^6 cells; Human In vitro T1/2 (pooled human hepatocytes): 4.1 h; Human Scale-up Clint (pooled human hepatocytes; scaling factor 2544.3): 14.3 mL/min/kg
24 nM	5.7 µL/min/1e6 cells	4.03 h	14.6 mL/min/kg	> 100000 nM	CC(C)(O)c1ccc(Nc2cc(Oc3cc(C(F)(F)F)nn3C3CCOCC3)ccn2)cn1 [Compound 11]	71%	Papp A→B at 2 h, 1 µM (P-glycoprotein (MDR1)): 7.38 ×10⁻⁶ cm/s; Papp B→A at 2 h, 1 µM (P-glycoprotein (MDR1)): 6.24 ×10⁻⁶ cm/s; efflux ratio at 2 h, 1 µM (P-glycoprotein (MDR1)): 0.85
28 nM	7.7 µL/min/1e6 cells	3 h	19.6 mL/min/kg	> 100000 nM	NS(=O)(=O)c1ccc(Nc2cc(Oc3cc(C(F)(F)F)nn3C3CCOCC3)ccn2)cc1 [Compound 12]	64%	–
44 nM	7.5 µL/min/1e6 cells	3.08 h	19 mL/min/kg	> 100000 nM	NS(=O)(=O)c1ccc(Nc2cc(Oc3cc(C4CC4)nn3C3CC3)ccn2)cc1 [Compound 13]	65%	–
38 nM	2.2 µL/min/1e6 cells	10.4 h	5.6 mL/min/kg	–	Cn1nc(C(F)(F)F)cc1Oc1ccnc(Nc2ccnc(C(C)(C)O)c2)c1 [Compound 23]	88%	–
12 nM	–	–	–	15000 nM	CC(C)(O)c1cc(Nc2cc(Oc3cc(C(F)(F)F)nn3-c3ccccn3)ccn2)ccn1 [Compound 41]	–	Papp A→B at 2 h, 1 µM (P-glycoprotein (MDR1)): 3.63 ×10⁻⁶ cm/s; Papp B→A at 2 h, 1 µM (P-glycoprotein (MDR1)): 4.88 ×10⁻⁶ cm/s; efflux ratio at 2 h, 1 µM (P-glycoprotein (MDR1)): 1.35
56 nM	6.8 µL/min/1e6 cells	3.38 h	17.4 mL/min/kg	> 100000 nM	CC(C)(O)c1cc(Nc2cc(Oc3cccnc3C3CCOCC3)ccn2)ccn1 [Compound 54]	61%	–
35 nM	–	–	–	15000 nM	Cc1ccc(Oc2ccnc(Nc3ccnc(C(C)(C)O)c3)c2)c(C2CCOCC2)n1 [Compound 55]	–	–
21 nM	2.4 µL/min/1e6 cells	9.73 h	6 mL/min/kg	> 100000 nM	Cc1ccc(Oc2ccnc(Nc3ccnc(C(C)(C)O)c3)c2)c(C)n1 [Compound 57]	89%	Papp A→B at 2 h, 1 µM (P-glycoprotein (MDR1)): 12.4 ×10⁻⁶ cm/s; Papp B→A at 2 h, 1 µM (P-glycoprotein (MDR1)): 18 ×10⁻⁶ cm/s; efflux ratio at 2 h, 1 µM (P-glycoprotein (MDR1)): 1.46
39 nM	–	–	–	11000 nM	Cc1ccc(Oc2ccnc(Nc3ccnc(C(C)(C)O)c3)c2)c(C2CC2)n1 [Compound 58]	–	–
32 nM	–	–	–	10000 nM	Cc1ccc(Oc2ccnc(Nc3ccc(S(N)(=O)=O)cc3)c2)c(C2CCOCC2)n1 [Compound 59]	–	–
51 nM	–	–	–	> 100000 nM	CC(C)(O)c1cc(Nc2cc(Oc3cn(C4CCC4)nc3C3CCOCC3)ccn2)ccn1 [Compound 67]	–	–
631 nM	–	–	–	> 100000 nM	CC(C)(O)c1cc(Nc2cc(Oc3cn(C4CCCC4)nc3C3CCOCC3)ccn2)ccn1 [Compound 68]	–	–
454 nM	–	–	–	> 100000 nM	CC(C)(O)c1cc(Nc2cc(Oc3cn(CC(F)(F)F)nc3C3CCOCC3)ccn2)ccn1 [Compound 69]	–	–
22 nM	–	–	–	> 100000 nM	CC1(C)OC(=N)c2ccc(Nc3cc(Oc4cn(C5CC5)nc4C4CCOCC4)ccn3)cc21 [Compound 78]	–	–
29 nM	–	–	–	73000 nM	CC1(C)OC(=O)c2ccc(Nc3cc(Oc4cn(C5CC5)nc4C4CCOCC4)ccn3)cc21 [Compound 79]	–	–
–	12.5 µL/min/1e6 cells	1.85 h	31.7 mL/min/kg	–	CC(C)(O)c1cc(Nc2cc(Oc3cn(C4CC4)nc3C3CCOCC3)ccn2)ccn1 [Compound A, 2-(4-((4-((1-cyclopropyl-3-(tetrahydro-2H-pyran-4-yl)-1H-pyrazol-4-yl)oxy)pyridin-2-yl)amino)pyridin-2-yl)propan-2-ol, reference compound]	48%	Papp A→B at 2 h, 1 µM (P-glycoprotein (MDR1)): 2.75 ×10⁻⁶ cm/s; Papp B→A at 2 h, 1 µM (P-glycoprotein (MDR1)): 37.8 ×10⁻⁶ cm/s; efflux ratio at 2 h, 1 µM (P-glycoprotein (MDR1)): 13.7
